Results on 1 compound are retold here after BindingDB's records for doi:10.1021/jm00129a030 (Takeda Chemical Industries, 1989).

The assay concerns the target Thromboxane A2 receptor (Cavia porcellus). As to the kind of experiment: In vitro concentration that reduced specific binding of [3H][…] to guinea pig platelet receptor, Thromboxane A2 receptor by 50%.

On to `CCCCC[C@H](O)/C=C/[C@@H]1[C@@H](C/C=C\CCCC(=O)O)[C@H]2CO[C@@H]1C2` [(Z)-7-((1R,4S,5S,6R)-6-((S,E)-3-hydroxyoct-1-enyl)-2-oxabicyclo[2.2.1]heptan-5-yl)hept-5-enoic acid], for which the IC50 (usually the midpoint of a concentration-inhibition curve) is 31 nM.
